# Data: patent US9353104B2, “Substituted pyridizinone derivatives as PDE10 inhibitors” (priority 2013, dated 2016)
# Target: human PDE10A2 (Homo sapiens (Human), UniProt Q9Y233)
# Test: PDE10 fluorescence polarization (IMAP FP) inhibition assay
# Format: biochemical
# Conditions: human PDE10A2 lysate, FAM-labeled cAMP 50 nM, room temperature; read-out: PDE10A Ki
# Experimental: The activity of the compounds in accordance with the present invention as PDE10 inhibitors may be readily determined without undue experimentation using a fluorescence polarization (FP) methodology that is well known in the art (Huang, W., et al., J. Biomol Screen, 2002, 7: 215). […] In a typical experiment the PDE10 inhibitory activity of the compounds of the present invention was determined in accordance with the following experimental method. PDE10A2 was amplified from human fetal brain cDNA (Clontech, Mountain View, Calif.) using a forward primer corresponding to nucleotides 56-77 of human PDE10A2 (Accession No. AF127480, Genbank Identifier 4894716), containing a Kozak consensus sequence, and a reverse primer corresponding to nucleotides 2406-2413 of human PDE10A2 (Accession No. AF127480, Genbank Identifier 4894716). Amplification with Easy-A polymerase (Stratagene, La Jolla, Calif.) was 95° C. for 2 minutes followed by thirty three cycles of 95° C. for 40 seconds, 55° C. for 30 seconds, and 72° C. for 2 minutes 48 seconds. Final extension was 72° C. for 7 minutes. The PCR product was TA cloned into pcDNA3.2-TOPO (Invitrogen, Carlsbad, Calif.) according to standard protocol. AD293 cells with 70-80% confluency were transiently transfected with human PDE10A2/pcDNA3.2-TOPO using Lipofectamine 2000 according to manufacturer specifications (Invitrogen, Carlsbad, Calif.). Cells were harvested 48 hours post-transfection and lysed by sonication (setting 3, 10×5 sec pulses) in a buffer containing 20 mM HEPES, 1 mM EDTA and protease inhibitor cocktail (Roche). Lysate was collected by centrifugation at 75,000×g for 20 minutes. Supernatant containing the cytoplasmic fraction was used for evaluation of PDE10A2 activity. The fluorescence polarization assay for cyclic nucleotide phosphodiesterases was performed using an IMAP® FP kit supplied by Molecular Devices, Sunnyvale, Calif. (product #R8139). IMAP® technology has been applied previously to phosphodiesterase assays (Huang, W., et al., J. Biomol Screen, 2002, 7: 215). Assays were performed at room temperature in 384-well microtiter plates with an incubation volume of 20.2 μL. Solutions of test compounds were prepared in DMSO and serially diluted with DMSO to yield 8 μL of each of 10 solutions differing by 3-fold in concentration, at 32 serial dilutions per plate. 100% inhibition is determined using a known PDE10 inhibitor, which can be any compound that is present at 5,000 times its Ki value in the assay described as follows, such as papaverine (see Siuciak, et al. Neuropharmacology (2006) 51:386-396; Becker, et al. Behav Brain Res (2008) 186(2):155-60; Threlfell, et al., J Pharmacol Exp Ther (2009) 328(3):785-795), 2-{4-[pyridin-4-yl-1-(2,2,2-trifluoroethyl)-1H-pyrazol-3-yl]phenoxymethyl}quinoline succinic acid or 2-[4-(1-methyl-4-pyridin-4-yl-1H-pyrazol-3-yl)-phenoxymethyl]quinoline succinic acid (see Schmidt, et al. J Pharmacol Exp Ther (2008) 325:681-690; Threlfell, et al., J Pharmacol Exp Ther (2009) 328(3): 785-795). 0% of inhibition is determined by using DMSO (1% final concentrations).
# A Labcyte Echo 555 (Labcyte, Sunnyvale, Calif.) is used to dispense 200 nL from each well of the titration plate to the 384 well assay plate. A solution of enzyme (1/1600 dilution from aliquots; sufficient to produce 20% substrate conversion) and a separate solution of FAM-labeled cAMP PDE from Molecular Devices (product #R7506), at a final concentration of 50 nM are made in the assay buffer (10 mM Tris HCl, pH 7.2, 10 mM MgCl2, 0.05% NaN3 0.01% Tween-20, and 1 mM DTT). The enzyme and the substrate are then added to the assay plates in two consecutive additions of 10 μL, and then shaken to mix. The reaction is allowed to proceed at room temperature for 30 minutes. A binding solution is then made from the kit components, comprised of 80% Solution A, 20% Solution B and binding reagent at a volume of 1/600 the total binding solution.
# Chain of human PDE10A2 (Q9Y233 267-1055): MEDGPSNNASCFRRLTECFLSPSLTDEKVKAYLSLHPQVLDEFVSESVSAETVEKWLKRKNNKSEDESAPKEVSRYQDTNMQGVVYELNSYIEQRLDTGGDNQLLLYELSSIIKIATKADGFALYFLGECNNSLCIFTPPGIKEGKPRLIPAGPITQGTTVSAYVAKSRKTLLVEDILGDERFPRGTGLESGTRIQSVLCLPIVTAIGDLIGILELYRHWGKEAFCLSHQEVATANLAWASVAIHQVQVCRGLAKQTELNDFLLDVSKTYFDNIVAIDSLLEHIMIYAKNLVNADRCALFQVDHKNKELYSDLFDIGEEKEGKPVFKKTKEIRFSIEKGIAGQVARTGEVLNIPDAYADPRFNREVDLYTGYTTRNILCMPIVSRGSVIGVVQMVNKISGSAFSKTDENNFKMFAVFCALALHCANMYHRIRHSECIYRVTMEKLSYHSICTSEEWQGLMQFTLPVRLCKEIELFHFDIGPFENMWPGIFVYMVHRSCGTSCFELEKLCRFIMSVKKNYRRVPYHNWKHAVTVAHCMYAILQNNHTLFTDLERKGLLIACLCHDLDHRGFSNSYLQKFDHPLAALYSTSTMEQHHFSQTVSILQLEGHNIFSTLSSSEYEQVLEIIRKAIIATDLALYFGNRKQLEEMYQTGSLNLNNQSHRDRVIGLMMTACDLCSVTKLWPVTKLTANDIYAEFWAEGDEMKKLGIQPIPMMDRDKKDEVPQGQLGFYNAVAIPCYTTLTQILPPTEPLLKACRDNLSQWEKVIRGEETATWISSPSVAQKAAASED
row,Compound,Ki [nM]
1,"6-(((1S,2S)-2-(5- methoxypyridin-2- yl)cyclopropyl)methoxy)- 2-methyl-4-(((2-methyl- thiazol-4- yl)methyl)amino-)- pyridazin-3(2H)-one [Example 49]",16.6
2,"Cc1ccc([C@H]2C[C@@H]2COc2cc(NCc3nnc(C)s3)c(=O)n(C)n2)nc1 [Example 1, 2-methyl-4-((5-methyl-1,3,4-thiadiazol-2-yl)methylamino)-6-(((1S,2S)-2-(5-methylpyridin-2-yl)cyclopropyl)methoxy)pyridazin-3(2H)-one]",0.013
3,"Cc1ncc(CNc2cc(OC[C@H]3C[C@@H]3c3ccn(C)n3)nn(C)c2=O)s1 [Example 2, 2-methyl-6-(((1S,2S)-2-(1-methyl-1H-pyrazol-3-yl)cyclopropyl)methoxy)-4-((2-methylthiazol-5-yl)methylamino)pyridazin-3(2H)-one]",0.089
4,"COc1ccc([C@H]2C[C@@H]2COc2cc(NCc3nnc(C)s3)c(=O)n(C)n2)nc1 [Example 4, 6-(((1S,2S)-2-(5-methoxy-pyridin-2-yl)cyclopropyl-)-methoxy)-2-methyl-4-((5-methyl-1,3,4-thiadiazol-2-yl)methylamino)pyridazin-3(2H)-one]",0.015
5,"Cc1nnc(CNc2cc(OC[C@H]3C[C@@H]3c3ccc(OC(F)F)cn3)nn(C)c2=O)s1 [Example 5, 6-(((1S,2S)-2-(5-(difluoromethoxy)pyridin-2-yl)cyclopropyl)methoxy-)-2-methyl-4-((5-methyl-1,3,4-thiadiazol-2-yl)-methylamino)pyridazin-3(2H)-one]",0.157
6,"Cc1nnc(CNc2cc(OC[C@H]3C[C@@H]3c3ccc(F)cn3)nn(C)c2=O)s1 [Example 7, 6-(((1S,2S)-2-(5-fluoropyridin-2-yl)cyclo-propyl)methoxy)-2-methyl-4-((5-methyl-1,3,4-thiadiazol-2-yl)methyl-amino)pyridazin-3(2H)one]",0.535
7,"COc1ccc(CNc2cc(OC[C@H]3C[C@@H]3c3ccc(C)cn3)nn(C)c2=O)cc1 [Example 8, 4-(4-methoxybenzylamino)-2-methyl-6-(((1S,2S)-2-(5-methylpyridin-2-yl)cyclopropyl)methoxy)-pyridazin-3(2H)-one]",0.074
8,"Cc1ccc(CNc2cc(OC[C@H]3C[C@@H]3c3ccc(C)cn3)nn(C)c2=O)nc1 [Example 9, 2-methyl-6-(((1S,2S)-2-(5-methylpyridin-2-yl)cyclopropyl)methoxy)-4-((5-methylpyridin-2-yl)methylamino)pyridazin-3(2H)-one]",0.051
9,"Cc1ccc([C@H]2C[C@@H]2COc2cc(NCc3cnn(C)c3)c(=O)n(C)n2)nc1 [Example 10, 2-methyl-4-((1-methyl-1H-pyrazol-4-yl)methylamino)-6-(((1S,2S)-2-(5-methylpyridin-2-yl)cyclopropyl)methoxy)-pyridazin-3(2H)-one]",0.072
10,"Cc1ccc([C@H]2C[C@@H]2COc2cc(NCc3ccc(C)nc3)c(=O)n(C)n2)nc1 [Example 11, 2-methyl-6-(((1S,2S)-2-(5-methylpyridin-2-yl)cyclopropyl)methoxy)-4-((6-methylpyridin-3-yl)methylamino)pyridazin-3(2H)-one]",0.121
11,"Cc1ccc([C@H]2C[C@@H]2COc2cc(NCc3nc(C)cs3)c(=O)n(C)n2)nc1 [Example 12, 2-methyl-6-(((1S,2S)-2-(5-methylpyridin-2-yl)cyclo-propyl)methoxy)-4-((4-methylthiazol-2-yl)methyl-amino)pyridazin-3(2H)one]",9.89
12,"Cc1ccc([C@H]2C[C@@H]2COc2cc(NCc3cnc(C)s3)c(=O)n(C)n2)nc1 [Example 13, 2-methyl-6-(((1S,2S)-2-(5-methylpyridin-2-yl)cyclopropyl)methoxy)-4-((2-methylthiazol-5-yl)methylamino)pyridazin-3(2H)-one]",0.011
13,"Cc1ccc([C@H]2C[C@@H]2COc2cc(NCc3cc(C)nn3C)c(=O)n(C)n2)nc1 [Example 14, 4-((1,3-dimethyl-1H-pyrazol-5-yl)methylamino-)-2-methyl-6-(((1S,2S)-2-(5-methylpyridin-2-yl)cyclopropyl)methoxy)-pyridazin-3(2H)-one]",0.003
14,"COc1ccc(CNc2cc(OC[C@H]3C[C@@H]3c3ccc(F)cn3)nn(C)c2=O)cc1 [Example 15, 6-(((1S,2S)-2-(5-fluoro-pyridin-2-yl)-cyclopropyl-)-methoxy)-4-(4-methoxy-benzylamino)-2-methyl-pyridazin-3(2H)-one]",1.29
15,"Cc1ccc(CNc2cc(OC[C@H]3C[C@@H]3c3ccc(F)cn3)nn(C)c2=O)nc1 [Example 16, 6-(((1S,2S)-2-(5-fluoropyridin-2-yl)cyclopropyl)methoxy)-2-methyl-4-((5-methylpyridin-2-yl)methylamino)pyridazin-3(2H)-one]",0.782
16,"COc1ccc(CNc2cc(OC[C@H]3C[C@@H]3c3ccn(C)n3)nn(C)c2=O)cc1 [Example 17, 4-(4-methoxybenzylamino)-2-methyl-6-(((1S,2S)-2-(1-methyl-1H-pyrazol-3-yl)cyclopropyl)methoxy)-pyridazin-3(2H)-one]",0.502
17,Cc1cc(CNc2cc(OC[C@H]3C[C@@H]3c3ccc(F)cn3)nn(C)c2=O)n(C)n1 [Example 18],0.099
18,"Cn1cc(CNc2cc(OC[C@H]3C[C@@H]3c3ccc(F)cn3)nn(C)c2=O)cn1 [Example 19, 6-(((1S,2S)-2-(5-fluoropyridin-2-yl)cyclo-propyl)methoxy)-2-methyl-4-((1-methyl-1H-pyrazol-4-yl)methylamino-)-pyridazin-3(2H)-one]",1.26
19,"Cc1ccc(CNc2cc(OC[C@H]3C[C@@H]3c3ccn(C)n3)nn(C)c2=O)cn1 [Example 20, 2-methyl-6-(((1S,2S)-2-(1-methyl-1H-pyrazol-3-yl)cyclopropyl)methoxy)-4-((6-methylpyridin-3-yl)methylamino)pyridazin-3(2H)-one]",0.806
20,"Cc1cc(CNc2cc(OC[C@H]3C[C@@H]3c3ccn(C)n3)nn(C)c2=O)n(C)n1 [Example 21, 4-((1,3-dimethyl-1H-pyrazol-5-yl)methylamino)-2-methyl-6-(((1S,2S)-2-(1-methyl-1H-pyrazol-3-yl)cyclopropyl)methoxy)-pyridazin-3(2H)-one]",0.044
21,"Cc1ncc(CNc2cc(OC[C@H]3C[C@@H]3c3ccc(F)cn3)nn(C)c2=O)s1 [Example 22, 6-(((1S,2S)-2-(5-fluoropyridin-2-yl)cyclopropyl)methoxy)-2-methyl-4-((2-methylthiazol-5-yl)methylamino)pyridazin-3(2H)-one]",0.175
22,"Cn1cc(CNc2cc(OC[C@H]3C[C@@H]3c3ccn(C)n3)nn(C)c2=O)cn1 [Example 23, 2-methyl-6-(((1S,2S)-2-(1-methyl-1H-pyrazol-3-yl)cyclopropyl)methoxy)-4-((1-methyl-1H-pyrazol-4-yl)methylamino)-pyridazin-3(2H)-one]",0.478
23,"Cc1nnc(CNc2cc(OC[C@H]3C[C@@H]3c3ccc(Cl)cn3)nn(C)c2=O)s1 [Example 25, 6-(((1S,2S)-2-(5-chloropyridin-2-yl)cyclopropyl)methoxy)-2-methyl-4-((5-methyl-1,3,4-thiadiazol-2-yl)methylamino)pyridazin-3(2H)-one]",0.0819
